Holding throughout (format): biochemical
One test deals with plasma. The experiment in a line: TT (thrombin time) clotting time.
The target of another test is T1, FIIa (Homo sapiens).
T1 construct: antithrombin (i.e., active coagulation factor IIa); purchased
The experiment in a line: AT-dependent IIa inhibitory activity assay. Here is the method:
AT-dependent IIa inhibitory activity assay: Heparin Anti-FIIa kit was used for detection. To a 96-well plate, 30 μL of sample, control solution or Tris-HCl buffer (negative control) was added, and then 30 μL of 1 IU/mL AT solution was added, mixed well by shaking the plate and incubated at 37° C. for 2 min; 30 μL of 24 IU/mL FIIa solution was added, mixed well by shaking the plate and incubated for 2 min at 37° C., and then 30 μL of pre-warmed 1.25 mM FIIa specific chromogenic substrate CS-01 (38) was added, mixed well by shaking the plate. The OD405 was detected by a microplate reader and the IC50 value of FIIa inhibition of each sample was calculated.
(§1) Data processing: The average value of OD405 detected by the duplicated well was used as the detection value of the test sample and the reference of each concentration, and the slope of the linear fit between the detected value to the time value (the change rate of the absorbance value OD405/min) indicated enzymatic activity of coagulation factor. Taking the clotting factor activity of the negative control well as 100%, coagulation factor activity (percentage) in the presence of the test sample was calculated. The coagulation factor activity in the presence of the test sample was plotted against the concentration of the test sample, and fitted according to the following formula, to calculate the IC50 value: B=(IC50)^n/{(IC50)^n+[I]^n}
(§2) in the formula, B is the coagulation factor activity (percentage) in the presence of the test sample, [I] is the concentration of the test sample, IC50 is the half inhibitory concentration (concentration of the test sample required to inhibit 50% of the activity), and n is the Hill coefficient. • (4) Effect on surface activation and platelet activity: […]

The target of a further test is T2, FXa (Homo sapiens).
T2 construct: 8 μg/mL FXa solution; purchased
Description: AT-dependent Xa inhibitory activity assay. Here is the method:
AT-dependent Xa inhibitory activity assay: Heparin […] kit was used for detection. To a 96-well plate, 30 μL of sample, control solution or Tris-HCl buffer (negative control) was added, then 30 μL of 1 IU/mL AT solution was added, mixed well and incubated at 37° C. for 1 min; and than 30 μL of 8 μg/mL FXa solution was added, mixed well and incubated at 37° C. for 1 min, then 30 μL of pre-warmed 1.25 mM Xa chromogenic substrate SXa-11 was added. OD405 was detected by a microplate reader.
as §1, §2

The target in a further test is T3, intrinsic factor Xase (Homo sapiens, UniProt P00740).
T3 construct: 60 nM FIXa; purchased
The experiment in a line: Xase inhibitory activity assay. As for the experimental part: Xase inhibitory activity assay: Detection was performed according to kit instructions and literature methods by combining the Factor VIII and […]. Specifically, to each well of a 96-well plate, 30 μL of test solution, control solution, or Tris-HCl buffer (negative control) was added, and 30 μl of FVIII (2 IU/ml), 30 μl of R2 (60 nM FIXa, containing FIIa, PC/PS, Ca^2+) were sequentially added, mixed by shaking the plate, incubated at 37° C. for 2 min; and then 30 μL of R1 (50 nM FX, containing direct thrombin inhibitor) was added, mixed by shaking the plate, incubated at 37° C. for 1 min; and then 30 μL of R3 (FXa chromogenic substrate SXa-11, about 8.4 mM) was added. The absorbance at 405 nm (OD405) was detected with a microplate reader, continuously measuring for 7.5 min at a interval of 30 s. The Xase activity and IC50 value of Xase inhibition of the test sample were calculated based on the OD405 change value.
as §1, §2

For test [1], the system named is human-controlled plasma. The experiment in a line: Anticoagulant activity assay: APTT clotting time. Here is the method:
(§3) 8.2 Methods • (1) Preparation of sample solution: Oligosaccharide compounds A1˜A8, B1˜B11 and oligosaccharide mixtures C1, D1, D2 were all dissolved in Tris-HCl buffer and diluted to the desired series of solubility. • (2) Anticoagulant activity assay: 90 μL of human-controlled plasma was added to the sample or 10 μL of the control solution, and then the clotting time (APTT and PT) was detected by the MC-4000 coagulometer according to the method described in the APTT and PT kit instructions. • (3) Coagulation factor inhibitory activity analysis: […]

In test [2] the test system is human-controlled plasma. The experiment in a line: Anticoagulant activity assay: PT clotting time. Here is the method: as §3
Setting [3] is: in presence of AT; read-out: Drug concentration required to inhibit 50% of coagulation factor activity (IC50, ng/mL) Ha (AT).
Where [4] appears, read: in presence of AT; read-out: Drug concentration required to inhibit 50% of coagulation factor activity (IC50, ng/mL) Xa (AT).
Setting [5] is: read-out: Drug concentration required to inhibit 50% of coagulation factor activity (IC50, ng/mL) Xase (converted).

Data on 5 compounds can be found in patent US12280072B2, “Oligosaccharide compound for inhibiting intrinsic coagulation factor X-enzyme complex, and preparation method therefor and uses thereof” (Jiuzhitang Co., Ltd., priority 2017, dated 2025).

Like-named read-outs stand apart in the source and are kept apart here.

T2 sequence (P01008 33-464): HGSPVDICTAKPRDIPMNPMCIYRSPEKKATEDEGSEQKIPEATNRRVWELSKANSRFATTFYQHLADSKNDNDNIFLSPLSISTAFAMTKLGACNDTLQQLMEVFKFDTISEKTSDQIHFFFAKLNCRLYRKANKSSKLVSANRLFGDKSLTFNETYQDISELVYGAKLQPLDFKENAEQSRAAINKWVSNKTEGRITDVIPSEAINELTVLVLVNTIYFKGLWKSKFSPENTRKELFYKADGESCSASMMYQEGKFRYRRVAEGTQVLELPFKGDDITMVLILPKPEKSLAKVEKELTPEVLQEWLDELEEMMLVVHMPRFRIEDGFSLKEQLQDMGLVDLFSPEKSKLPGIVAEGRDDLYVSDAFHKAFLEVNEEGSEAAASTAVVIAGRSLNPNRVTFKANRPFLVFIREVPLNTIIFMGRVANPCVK
T1 sequence (P01008 33-464): as above
T3 sequence (P00740 47-191 limits assumed): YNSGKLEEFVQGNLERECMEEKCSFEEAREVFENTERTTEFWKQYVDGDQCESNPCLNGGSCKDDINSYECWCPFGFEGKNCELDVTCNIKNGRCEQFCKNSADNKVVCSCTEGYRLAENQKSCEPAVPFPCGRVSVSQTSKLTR
T3 sequence (P00740 227-461 limits assumed): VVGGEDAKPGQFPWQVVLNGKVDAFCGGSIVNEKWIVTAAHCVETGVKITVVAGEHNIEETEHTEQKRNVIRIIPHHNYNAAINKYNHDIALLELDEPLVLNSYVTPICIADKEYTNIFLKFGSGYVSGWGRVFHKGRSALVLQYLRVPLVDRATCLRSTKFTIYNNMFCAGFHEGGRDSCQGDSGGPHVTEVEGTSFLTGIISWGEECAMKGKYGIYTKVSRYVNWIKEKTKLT

In the case of `CC(=O)NC(CO)C(OC1OC(C(=O)O)C(OC2OC(COS(=O)(=O)O)C(OS(=O)(=O)O)C(OC3OC(C(=O)O)C(OC4OC(COS(=O)(=O)O)C(OS(=O)(=O)O)C(OC5OC(C(=O)O)C(OC6OC(COS(=O)(=O)O)C(OS(=O)(=O)O)C(OC7OC(C(=O)O)=CC(OC8OC(C)C(OS(=O)(=O)O)C(O)C8OS(=O)(=O)O)C7O)C6NC(C)=O)C(OC6OC(C)C(OS(=O)(=O)O)C(O)C6OS(=O)(=O)O)C5O)C4NC(C)=O)C(OC4OC(C)C(OS(=O)(=O)O)C(O)C4OS(=O)(=O)O)C3O)C2NC(C)=O)C(OC2OC(C)C(OS(=O)(=O)O)C(O)C2OS(=O)(=O)O)C1O)C(OS(=O)(=O)O)C(O)COS(=O)(=O)O` [Compound A3, L-Fuc2S4S-(α1,3)-ΔUA-(α1,3)-{D-GaNAc4S6S-(β1,4)-[L-Fuc2S4S-(α1,3)]-D-GlcA-(β1,3)}n+1-D-GalNAc4S6S-ol], the “Drug concentration required for multiplication of coagulation time (μg/mL) TT” value (shortened to “Drug concentration required … (μg/mL) TT”) in the test on plasma was “# (>128 μg/mL)”. Further, the figures for the IC50 on FIIa (Homo sapiens) (setting [3]), at FXa (Homo sapiens) (setting [4]) and at intrinsic factor Xase (setting [5]) were over 1480 nM, over 1480 nM and 11.8 nM, respectively. Moreover, the “Drug concentration required for multiplication of coagulation time (μg/mL) APTT” value (“Drug concentration required … (μg/mL) APTT” below) in the test on human-controlled plasma [1] was found to be 6.8 µg/mL. Also, in the test on human-controlled plasma [2], the “Drug concentration required for multiplication of coagulation time (μg/mL) PT” value (“Drug concentration required … (μg/mL) PT” below) is on record as “# (>128 μg/mL)”.

As for `CC(=O)NC1C(OC2C(C(=O)O)OC(OC3C(NC(C)=O)C(OC4C(C(=O)O)OC(OC5C(NC(C)=O)C(OC6C(C(=O)O)OC(OC7C(NC(C)=O)C(OC(C(O)C(=O)O)C(OC8OC(C)C(OS(=O)(=O)O)C(OS(=O)(=O)O)C8O)C(O)CO)OC(COS(=O)(=O)O)C7OS(=O)(=O)O)C(O)C6OC6OC(C)C(OS(=O)(=O)O)C(OS(=O)(=O)O)C6O)OC(COS(=O)(=O)O)C5OS(=O)(=O)O)C(O)C4OC4OC(C)C(OS(=O)(=O)O)C(OS(=O)(=O)O)C4O)OC(COS(=O)(=O)O)C3OS(=O)(=O)O)C(O)C2OC2OC(C)C(OS(=O)(=O)O)C(OS(=O)(=O)O)C2O)OC(COS(=O)(=O)O)C(OS(=O)(=O)O)C1OC1OC(C(=O)O)=CC(OC2OC(C)C(OS(=O)(=O)O)C(OS(=O)(=O)O)C2O)C1O` [Compound B4, L-Fuc3S4S-(α1,3)-L-ΔUA-(α1,3)-{D-GalNAc4S6S-(β1,4)-[L-Fuc3S4S-(α1,3)]-D-GlcA-(β1,3)}˜-D-GalNAc4S6S-(β1,4)-[L-Fuc3S4S-(α1,3)]-D-GlcA-ol], in the test on plasma, the “Drug concentration required … (μg/mL) TT” value was “# (>128 μg/mL)”. The IC50 on FIIa (Homo sapiens) (read-out: Drug concentration required to inhibit 50% of coagulation factor activity (IC50, ng/mL) Ha (AT); in presence of AT) was over 1290 nM; on FXa (Homo sapiens) (read-out: Drug concentration required to inhibit 50% of coagulation factor activity (IC50, ng/mL) Xa (AT); in presence of AT), over 1290 nM; on intrinsic factor Xase (read-out: Drug concentration required to inhibit 50% of coagulation factor activity (IC50, ng/mL) Xase), 5.33 nM. In addition, in the test on human-controlled plasma [1], the “Drug concentration required … (μg/mL) APTT” value is 4.5 µg/mL. Moreover, the “Drug concentration required … (μg/mL) PT” value in the test on human-controlled plasma [2] is reported as “# (>128 μg/mL)”.

As for `CC(=O)NC(CO)C(OC1OC(C(=O)O)C(OC2OC(COS(=O)(=O)O)C(OS(=O)(=O)O)C(OC3OC(C(=O)O)C(OC4OC(COS(=O)(=O)O)C(OS(=O)(=O)O)C(OC5OC(C(=O)O)C(OC6OC(COS(=O)(=O)O)C(OS(=O)(=O)O)C(OC7OC(C(=O)O)C(OC8OC(COS(=O)(=O)O)C(OS(=O)(=O)O)C(OC9OC(C(=O)O)=CC(OC%10OC(C)C(OS(=O)(=O)O)C(O)C%10OS(=O)(=O)O)C9O)C8NC(C)=O)C(OC8OC(C)C(OS(=O)(=O)O)C(O)C8OS(=O)(=O)O)C7O)C6NC(C)=O)C(OC6OC(C)C(OS(=O)(=O)O)C(O)C6OS(=O)(=O)O)C5O)C4NC(C)=O)C(OC4OC(C)C(OS(=O)(=O)O)C(O)C4OS(=O)(=O)O)C3O)C2NC(C)=O)C(OC2OC(C)C(OS(=O)(=O)O)C(O)C2OS(=O)(=O)O)C1O)C(OS(=O)(=O)O)C(O)COS(=O)(=O)O` [Compound A4, L-Fuc2S4S-(α1,3)-ΔUA-(α1,3)-{D-GaNAc4S6S-(β1,4)-[L-Fuc2S4S-(α1,3)]-D-GlcA-(β1,3)}n+1-D-GalNAc4S6S-ol], the “Drug concentration required … (μg/mL) TT” value in the test on plasma is “# (>128 μg/mL)”. For the same compound, the IC50 at FIIa (Homo sapiens) (setting [3]) was over 1180 nM; on FXa (Homo sapiens) (setting [4]), over 1180 nM; on intrinsic factor Xase (setting [5]) it was 6.67 nM. Moreover, the “Drug concentration required … (μg/mL) APTT” value with human-controlled plasma [1] stood at 5.3 µg/mL. In the test with human-controlled plasma [2], the “Drug concentration required … (μg/mL) PT” value was “# (>128 μg/mL)”.

Take `COCC(NC(C)=O)C(OC1OC(C(=O)OC)C(OC2OC(COS(=O)(=O)O)C(OS(=O)(=O)O)C(OC3OC(C(=O)OC)C(OC4OC(COS(=O)(=O)O)C(OS(=O)(=O)O)C(OC5OC(C(=O)OC)=CC(OC6OC(C)C(OS(=O)(=O)O)C(O)C6OS(=O)(=O)O)C5O)C4NC(C)=O)C(OC4OC(C)C(OS(=O)(=O)O)C(O)C4OS(=O)(=O)O)C3O)C2NC(C)=O)C(OC2OC(C)C(OS(=O)(=O)O)C(O)C2OS(=O)(=O)O)C1O)C(OS(=O)(=O)O)C(O)COS(=O)(=O)O` [Compound A8, L-Fuc2S4S-(α1,3)-[6-Methyl-ΔUA-(α1,3)]-{D-GaNAc4S6S-(β1,4)-[L-Fuc2S4S-(α1,3)-]-D-6-Methyl-GlcA-(β1,3)}2-D-1-Methyl-Gal-NAc4S6S-ol]: the “Drug concentration required … (μg/mL) TT” value with plasma was “# (>128 μg/mL)”. Further, the IC50 is over 1930 nM at FIIa (Homo sapiens) (setting [3]), over 1930 nM on FXa (Homo sapiens) (setting [4]) and 27.2 nM on intrinsic factor Xase (setting [5]). Further, the “Drug concentration required … (μg/mL) APTT” value in the test with human-controlled plasma [1] was 8.2 µg/mL. In the test with human-controlled plasma [2], the “Drug concentration required … (μg/mL) PT” value is recorded as “# (>128 μg/mL)”.

Consider `COC(=O)C1=CC(OC2OC(C)C(OS(=O)(=O)O)C(O)C2OS(=O)(=O)O)C(O)C(OC2C(NC(C)=O)C(OC3C(C(=O)OC)OC(OC4C(NC(C)=O)C(OC5C(C(=O)OC)OC(OCc6ccccc6)C(O)C5OC5OC(C)C(OS(=O)(=O)O)C(O)C5OS(=O)(=O)O)OC(COS(=O)(=O)O)C4OS(=O)(=O)O)C(O)C3OC3OC(C)C(OS(=O)(=O)O)C(O)C3OS(=O)(=O)O)OC(COS(=O)(=O)O)C2OS(=O)(=O)O)O1` [Compound B10, L-Fuc2S4S-(α1,3)-L-6-Methyl-ΔUA-(α1,3)-D-GaNAc4S6S-(β1,4)-[L-Fuc2S4S-(α1,3)]-D-6-Methyl-ΔUA-GlcA-(β1,3)-D-GalNAc4S6S-(β1,4)-[L-Fuc2S4S-(α1,3)]-D-O-1-Benzyl-6-Methyl-GlcA], for which the “Drug concentration required … (μg/mL) TT” value in the test on plasma is on record as “# (>128 μg/mL)”. Also, the figures for the IC50 on FIIa (Homo sapiens) (setting [3]), on FXa (Homo sapiens) (setting [4]) and on intrinsic factor Xase (setting [5]) were over 2170 nM, over 2170 nM and 26.7 nM, respectively. Further, in the test on human-controlled plasma [1], the “Drug concentration required … (μg/mL) APTT” value amounted to 7.9 µg/mL. Moreover, the “Drug concentration required … (μg/mL) PT” value with human-controlled plasma [2] is reported as “# (>128 μg/mL)”.
